Values of other authors in US12239660B2, “Therapeutic composition and methods” (Viscera Labs, Inc., priority 2018, dated 2025).

Conditions: in vivo, po

O=C(O)c1cc(/N=N/c2ccc(S(=O)(=O)Nc3ccccn3)cc2)ccc1O [sulfasalazin]
drug released in the small intestine: 12%
